These results are taken from PMC9856672, “SGC-CAMKK2-1: A Chemical Probe for CAMKK2” (Cells, 2023).

Like-named read-outs stand apart in the source and are kept apart here.

The target in one experiment is CAMKK2 (Homo sapiens, UniProt Q96RR4). Nature of the experiment: DiscoverX KINOMEscan binding assay at 1 μM, CAMKK2. Further details: purchased Eurofins DiscoverX KINOMEscan. The method, then:
(§1) Compounds were screened at Eurofins DiscoverX (Freemont, CA) at a single concentration of 1 μM using binding assays as described previously. Briefly, extracts containing DNA-tagged kinases are incubated with immobilized kinase inhibitors and the test compound (at 1 μM). Test compounds that displace the immobilized broad-spectrum inhibitors are detected by quantitative PCR. The results are expressed as the percentage of kinase bound to the bead compared to DMSO control (%control). […] The formula to calculate S10 depicted in Equation (1). (1) S10(1 μM)=number of wild type kinase with % control ≤10/number of wild type kinase tested
(§2) A series of furo [2,3-b]pyridines were generated with modifications off the core at the 3- and 5-positions. They were profiled in the CAMKK2 enzyme assay we have described and utilized previously. Briefly, the enzyme assay measures the ability of the compound to inhibit the transfer of a radiolabeled phosphate from ATP to a CAMKK2-specific peptide. […] 5 was then profiled in the DiscoverX KINOMEscan™ assay panel to provide a view of the overall kinome-wide selectivity (Supplemental S2). This assay platform evaluates compound affinity for a panel of more than 400 wild-type human kinases. The S10 (1 µM), a calculated score that is reflective of broad kinome selectivity, is 0.002 for the probe molecule.

For the next experiment, the target named is T1, MYO3B (Homo sapiens, UniProt Q8WXR4).
T1 construct: purchased Eurofins DiscoverX KINOMEscan
T1 sequence (Q8WXR4 1-1341): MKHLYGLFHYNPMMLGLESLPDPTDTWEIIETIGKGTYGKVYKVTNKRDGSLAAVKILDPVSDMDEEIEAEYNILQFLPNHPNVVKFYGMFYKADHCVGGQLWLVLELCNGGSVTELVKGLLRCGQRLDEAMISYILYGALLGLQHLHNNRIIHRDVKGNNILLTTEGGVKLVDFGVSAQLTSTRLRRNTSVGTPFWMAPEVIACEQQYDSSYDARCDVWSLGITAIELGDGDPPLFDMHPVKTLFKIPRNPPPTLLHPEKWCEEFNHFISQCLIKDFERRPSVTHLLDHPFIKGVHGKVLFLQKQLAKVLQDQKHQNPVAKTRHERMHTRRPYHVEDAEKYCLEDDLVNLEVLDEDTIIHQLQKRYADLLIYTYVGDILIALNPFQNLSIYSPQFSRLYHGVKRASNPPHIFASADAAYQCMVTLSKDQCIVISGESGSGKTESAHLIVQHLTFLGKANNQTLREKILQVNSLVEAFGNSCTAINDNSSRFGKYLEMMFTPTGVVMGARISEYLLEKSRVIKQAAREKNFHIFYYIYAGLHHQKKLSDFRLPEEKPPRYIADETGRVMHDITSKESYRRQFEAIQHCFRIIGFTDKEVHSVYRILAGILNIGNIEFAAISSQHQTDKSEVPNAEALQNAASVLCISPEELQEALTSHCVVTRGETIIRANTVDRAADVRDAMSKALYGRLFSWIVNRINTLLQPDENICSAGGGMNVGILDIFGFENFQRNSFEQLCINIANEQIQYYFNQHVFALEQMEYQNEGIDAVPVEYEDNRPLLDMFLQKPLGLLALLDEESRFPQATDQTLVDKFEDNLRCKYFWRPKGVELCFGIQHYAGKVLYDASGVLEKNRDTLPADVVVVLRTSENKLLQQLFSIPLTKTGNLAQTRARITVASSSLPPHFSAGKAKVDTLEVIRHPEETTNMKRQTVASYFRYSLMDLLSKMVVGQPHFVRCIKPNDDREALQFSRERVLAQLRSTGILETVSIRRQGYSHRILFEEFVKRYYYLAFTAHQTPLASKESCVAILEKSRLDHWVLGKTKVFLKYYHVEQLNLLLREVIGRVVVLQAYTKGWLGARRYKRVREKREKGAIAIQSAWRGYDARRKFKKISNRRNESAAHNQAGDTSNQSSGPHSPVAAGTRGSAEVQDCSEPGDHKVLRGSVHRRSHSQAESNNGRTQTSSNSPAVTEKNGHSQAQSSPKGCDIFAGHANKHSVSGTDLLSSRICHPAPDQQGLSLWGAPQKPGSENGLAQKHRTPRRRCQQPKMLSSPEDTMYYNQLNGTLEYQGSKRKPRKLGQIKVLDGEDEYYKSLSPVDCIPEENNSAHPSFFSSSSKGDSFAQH
Nature of the experiment: DiscoverX KINOMEscan binding assay at 1 μM, MYO3B. The method, then:
as §1, §2

Another experiment has as its target T2, CAMKK1 (Homo sapiens, UniProt Q8N5S9).
T2 construct: purchased Eurofins DiscoverX KINOMEscan
Nature of the experiment: DiscoverX KINOMEscan binding assay at 1 μM, CAMKK1. The method, then:
as §1, §2

The target of a further experiment is PIM2 (Homo sapiens, UniProt Q9P1W9). Nature of the experiment: DiscoverX KINOMEscan binding assay at 1 μM, PIM2. Also noted: purchased Eurofins DiscoverX KINOMEscan. The method, then: as §1
(§3) In the DiscoverX KinomeSCAN® assay panel, when screened at a concentration of 1 µM, compound 7 bound to very few kinases with S10 (1 µM) = 0.005. The only two kinases with significant binding for compound 7 were PIP4K2C with a PoC = 7.2 and PIM2 with PoC = 7.4. PIP4K2C is a lipid kinase that has very little catalytic activity, and there is no commercially available kinase activity assay, so this potential off-target activity for the negative control remains uncharacterized.

In the next experiment the target is T3, PIP4K2C (Homo sapiens, UniProt Q8TBX8).
T3 construct: purchased Eurofins DiscoverX KINOMEscan
T3 sequence (Q8TBX8 1-421): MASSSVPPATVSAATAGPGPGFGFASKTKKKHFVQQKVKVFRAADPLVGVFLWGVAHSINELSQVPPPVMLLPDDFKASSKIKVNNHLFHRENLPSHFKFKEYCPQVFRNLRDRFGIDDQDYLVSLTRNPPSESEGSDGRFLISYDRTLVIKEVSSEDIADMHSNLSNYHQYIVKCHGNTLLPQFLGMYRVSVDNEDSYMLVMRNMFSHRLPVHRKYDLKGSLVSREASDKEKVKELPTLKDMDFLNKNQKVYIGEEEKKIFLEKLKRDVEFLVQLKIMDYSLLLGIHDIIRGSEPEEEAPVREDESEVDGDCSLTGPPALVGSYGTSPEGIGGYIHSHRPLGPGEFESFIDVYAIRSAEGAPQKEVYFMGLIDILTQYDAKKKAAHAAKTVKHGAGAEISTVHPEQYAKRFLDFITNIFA
Kind of experiment: DiscoverX KINOMEscan binding assay at 1 μM, PIP4K2C. The method, then:
as §1, §3

Where [1] appears, read: percentage of control, compound at 1 μM, read-out: PoC (1 μM) CAMKK2.
[2] abbreviates: percentage of control, compound at 1 μM, read-out: PoC (1 μM) CAMKK1.

T2 sequence (Q8N5S9 whole entry): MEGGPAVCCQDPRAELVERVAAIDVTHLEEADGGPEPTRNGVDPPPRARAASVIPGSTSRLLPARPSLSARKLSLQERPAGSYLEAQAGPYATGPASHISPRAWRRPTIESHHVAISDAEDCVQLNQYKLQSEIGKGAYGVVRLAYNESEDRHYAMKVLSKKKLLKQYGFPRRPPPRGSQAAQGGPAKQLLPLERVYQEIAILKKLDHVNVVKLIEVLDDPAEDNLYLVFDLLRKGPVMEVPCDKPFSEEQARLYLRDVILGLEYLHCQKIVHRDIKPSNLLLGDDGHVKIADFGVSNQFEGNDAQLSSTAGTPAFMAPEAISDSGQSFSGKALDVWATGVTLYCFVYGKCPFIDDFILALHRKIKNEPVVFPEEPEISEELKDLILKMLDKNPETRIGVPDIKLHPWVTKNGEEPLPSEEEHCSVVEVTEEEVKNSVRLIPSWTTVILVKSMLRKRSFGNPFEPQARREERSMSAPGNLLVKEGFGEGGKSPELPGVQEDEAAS
Chain of PIM2 (Q9P1W9 whole entry): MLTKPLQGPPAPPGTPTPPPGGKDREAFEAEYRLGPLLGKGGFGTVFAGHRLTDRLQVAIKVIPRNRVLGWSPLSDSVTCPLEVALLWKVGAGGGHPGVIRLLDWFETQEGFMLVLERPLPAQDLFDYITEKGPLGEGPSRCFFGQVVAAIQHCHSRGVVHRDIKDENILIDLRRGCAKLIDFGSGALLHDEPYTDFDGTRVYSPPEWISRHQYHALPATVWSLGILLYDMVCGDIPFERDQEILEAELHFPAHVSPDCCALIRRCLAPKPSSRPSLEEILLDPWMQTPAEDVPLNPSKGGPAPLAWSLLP
Chain of CAMKK2 (Q96RR4 whole entry): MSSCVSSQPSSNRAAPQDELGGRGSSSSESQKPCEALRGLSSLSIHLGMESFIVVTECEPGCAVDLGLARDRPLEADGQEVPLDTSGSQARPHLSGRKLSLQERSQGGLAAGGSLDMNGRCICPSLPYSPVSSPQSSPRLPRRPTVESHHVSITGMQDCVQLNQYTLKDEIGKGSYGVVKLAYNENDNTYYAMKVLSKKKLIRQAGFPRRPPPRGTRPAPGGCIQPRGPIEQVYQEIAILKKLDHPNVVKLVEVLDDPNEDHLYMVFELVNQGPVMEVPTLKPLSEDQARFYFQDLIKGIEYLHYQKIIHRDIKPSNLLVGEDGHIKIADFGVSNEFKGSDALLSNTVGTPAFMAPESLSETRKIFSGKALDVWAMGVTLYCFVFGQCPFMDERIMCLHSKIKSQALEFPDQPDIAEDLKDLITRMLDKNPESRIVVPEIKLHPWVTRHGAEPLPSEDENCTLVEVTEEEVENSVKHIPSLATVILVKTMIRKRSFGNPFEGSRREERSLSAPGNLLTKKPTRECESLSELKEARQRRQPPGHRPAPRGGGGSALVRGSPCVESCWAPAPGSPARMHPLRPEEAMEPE

For `Cc1cccc(-c2cnc3occ(-c4ccc(C(=O)O)c(C5CCCC5)c4)c3c2)c1` [Compound 5], the remaining binding at 1 µM was found to be 5.4% at CAMKK2 (setting [1]); 45% at MYO3B (percentage of control, compound at 1 μM, read-out: PoC (1 μM) MYO3B); 12% on CAMKK1 (setting [2]).

Turning to `O=C(O)c1ccc(-c2coc3ncc(-c4ccccc4)cc23)cc1Cl` [Compound 7], the remaining binding at 1 µM at CAMKK2 (setting [1]) came to 84%; on PIM2 (percentage of control, compound at 1 μM, read-out: PoC (1 μM) PIM2), 7.4%; at PIP4K2C (percentage of control, compound at 1 μM, read-out: PoC (1 μM) PIP4K2C), 7.2%; on CAMKK1 (setting [2]), 91%.

As to `Cc1cccc(-c2cnc3occ(-c4ccc(C(=O)O)c(C5CCCC5)c4)c3c2)c1` [SGC-CAMKK2-1 (YL-36)], the remaining binding at 1 µM at CAMKK2 (1000 nM, Entrez CAMKK2, read-out: Percent Control) worked out at 7.5%; on MYO3B (1000 nM, Entrez MYO3B, read-out: Percent Control), 100%; at PIM2 (1000 nM, Entrez PIM2, read-out: Percent Control), 96%; on PIP4K2C (1000 nM, DiscoveRx PIP5K2C, Entrez PIP4K2C, read-out: Percent Control) it was 61%; at CAMKK1 (1000 nM, Entrez CAMKK1, read-out: Percent Control), 15%.

Regarding `O=C(O)c1ccc(-c2coc3ncc(-c4ccccc4)cc23)cc1Cl` [SGC-CAMKK2-1N (UNC-YL-83)], the remaining binding at 1 µM on CAMKK2 (CAMKK2, 1000 nM, read-out: Percent Control) was found to be 84%; at MYO3B (Compound Concentration 1000 nM, read-out: Percent Control) it was 100%; at PIM2 (PIM2, 1000 nM, read-out: Percent Control), 7.4%; at PIP4K2C (PIP5K2C (PIP4K2C), 1000 nM, read-out: Percent Control), 7.2%; on CAMKK1 (CAMKK1, 1000 nM, read-out: Percent Control) it was 91%.
